# Test results: PubChem BioAssay AID463204 (Broad Institute, 2010)
# Calls of active or inactive are those of the source.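 The calls were made as follows: active = AC50 no more than ten times the top concentration tested, that is within one log above it; inconclusive = flat curve fit with activity between 30% and 70%, or invalid poor fit; inactive = AC50 beyond ten times the top tested dose.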
# System: S. cerevisiae Mot1-301 ts growth rescue, BacTiter-Glo ATP luminescence
# Experiment: growth rescue of Mot1-301 ts yeast, confirmation, SUMOylation pathway inhibitor project, whole organism, S. cerevisiae, Mot1-301 ts mutant, luminescence, dose retest (AID 463204);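 also: growth at restrictive 38.5 degrees C of Mot1-301 OY566 strain; actives raise luminescence by restoring growth of the ts mutant at high temperature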
row,SMILES,AC50
1,O=C(O)C1C2CCC(O2)C1C(=O)NCCC1=CCCCC1 (stereo unspecified),> 42 µM (inactive)
2,CNC(=O)Nc1cc(NC(=O)NC)cc(C(F)(F)F)c1,> 42 µM (inactive)
3,O=C1N=C(N2CCOCC2)S/C1=C\c1cccnc1,> 42 µM (inactive)
4,Nc1nc(CSc2nnnn2-c2ccc(Cl)cc2)nc(N2CCOCC2)n1,> 42 µM (inactive)
5,Cc1ccc(CN(C)C(=O)c2ccc3c(c2)NC(=O)CS3)o1,> 42 µM (inactive)
6,Cc1ccc2nc(/C(C#N)=C\c3cc(O)ccc3[N+](=O)[O-])[nH]c2c1,> 42 µM (inactive)
7,O=C(CSc1nnc(COc2ccccc2Cl)o1)NC(=O)NC1CCCC1,> 42 µM (inactive)
8,Cc1ccc(NC(=O)N[C@H](C(=O)O)C(C)C)c(C)c1,> 42 µM (inactive)
9,O=C(Nc1ccc2ccccc2c1)N1CCCN(CCOc2ccccc2)CC1,> 42 µM (inactive)
10,CCCCCCCCCCOC(=O)Cn1c(COc2ccccc2OC)[n+](C)c2ccccc21,13.4 µM
11,CC1CC(c2ccccc2)NS(=O)(=O)O1 (stereo unspecified),> 42 µM (inactive)
12,CC1=CS(=O)(=O)CC1Sc1ncn[nH]1 (stereo unspecified),> 42 µM (inactive)
13,CCCc1ccccc1OCCNC(C)=O,> 42 µM (inactive)
14,O=C1CC(c2c[nH]c3ccccc23)C(=O)N1c1ccccc1 (stereo unspecified),> 42 µM (inactive)
15,CN(C)c1ccc(C(CNS(=O)(=O)c2ccc([N+](=O)[O-])cc2)N2CCOCC2)cc1 (stereo unspecified),> 42 µM (inactive)
16,C/C(=N\NC(=O)c1cccc(N/N=C(\C)c2ccc([N+](=O)[O-])cc2)c1)c1ccc([N+](=O)[O-])cc1,> 42 µM (inactive)
17,CCOc1c(P(=S)(N(C)C)N(C)C)c(C)nn1-c1ccccc1,> 42 µM (inactive)
18,c1ccc(-c2csc(NC3CCCCC3)n2)cc1,> 42 µM (inactive)
19,CCOC(=O)N1CCC(Nc2nc3ccccc3n3nnnc23)CC1,> 42 µM (inactive)
20,O=c1nc2ccc(Cl)cn2c2ccc(S(=O)(=O)N3CCOCC3)cc12,> 42 µM (inactive)
21,COc1ccc(-c2[nH]nc3c2C(c2ccncc2)C(C#N)=C(N)O3)cc1 (stereo unspecified),> 42 µM (inactive)
22,COc1ccc(-c2cn(-c3ccc(C)cc3)c(=O)n2CC(=O)Nc2ccc(OC)c(OC)c2)cc1,> 42 µM (inactive)
23,CCOc1ccc(-n2cc(C(=O)NCCOC)c3cc(OC)c(OC)cc3c2=O)cc1,> 42 µM (inactive)
24,CCOC(=O)Cn1c(C)c(Br)c(=O)c2cccc(C)c21,> 42 µM (inactive)
25,COC(=O)CCCC(=O)NCC1(N(C)Cc2ccccc2)Cc2ccccc2C1,> 42 µM (inactive)
26,Cc1ccc(Sc2cnccc2C#N)cc1,> 42 µM (inactive)

row,SMILES,AC50
1,CCOc1ccc(/C=N/NC(=O)c2ccc(CSc3nc4ccccc4[nH]3)cc2)cc1,> 42 µM (inactive)
2,Cc1cc(C)c(NC(=O)CCN2CCN(Cc3ccccc3)CC2)c(C)c1,> 42 µM (inactive)
3,CC(C)C(=O)Nc1ccc(-c2nc3cccnc3o2)cc1,> 42 µM (inactive)
4,O=C1c2ccccc2NC(c2ccccc2O)N1O (stereo unspecified),> 42 µM (inactive)
5,COc1ccc(C2C(C(C)=O)=C(O)C(=O)N2CCO)c(OC)c1 (stereo unspecified),> 42 µM (inactive)
6,COCCNC(=O)C(=O)N/N=C(\C)CC(=O)Nc1cccc(C(F)(F)F)c1,> 42 µM (inactive)
7,NC(=O)CN1CCOCCN(CC(N)=O)CCOCC1,> 42 µM (inactive)
8,CN(NC(=O)c1ccccc1F)c1nc(C(F)(F)F)nc2ccccc12,> 42 µM (inactive)
9,C/C(N)=C(/C#N)C(=O)CSc1nnc(-c2ccccc2)n1C,> 42 µM (inactive)
10,Nc1nnc(COc2ccc(Br)cc2Br)s1,> 42 µM (inactive)
11,CCOc1ccc(NC(=O)Nc2ccc3nsnc3c2)cc1,> 42 µM (inactive)
12,CCOc1ccc(-c2nc3n(c(=O)c2C#N)CCS3)cc1,> 42 µM (inactive)
13,COc1ccccc1/C=C/C(=O)NC(=S)N1CCOCC1,> 42 µM (inactive)
14,CCOC(=O)COc1nc(-c2ccc(C)cc2)cc(-c2ccco2)c1C#N,> 42 µM (inactive)
15,CCCCn1c(N)c(N(CCOC)C(=O)c2cnccn2)c(=O)[nH]c1=O,> 42 µM (inactive)
16,COC(=O)c1[nH]c2cc(C)ccc2c1NC(=O)CN1CCN(c2ccccc2OC)CC1,> 21 µM (inactive)
17,O=C(CCC(=O)Nc1ccc(F)cc1)N/N=C/c1cccs1,> 42 µM (inactive)
18,CCOP(=O)(OCC)c1cc(CC)ccc1O,> 42 µM (inactive)
19,O=C(CCc1ccccc1)NNC(=S)Nc1ccc(F)cc1,> 42 µM (inactive)
20,COc1ccc2c(c1)[C@H]1[C@H](CO2)[C@H](c2ccccc2)[C@]2(C)C(=O)Nc3cc(C)ccc3C(=O)N12,5.3 µM
21,Cc1ccc(C(=O)NC(NC(=O)c2ccc(C)cc2)C(Cl)Cl)cc1,> 42 µM (inactive)
22,COCCn1c(-c2ccc(Cl)cc2)cnc1SCC(=O)NCCc1ccc(OC)c(OC)c1,> 42 µM (inactive)
23,COc1ccc(C(=O)COc2ccc3ccc(=O)oc3c2)cc1,> 42 µM (inactive)
24,CCN1C(=S)N[C@@H](c2cccs2)C(C(=O)OC)=C1C,> 42 µM (inactive)
25,CCc1nc2ccc(C(=O)N3CCN(CC)CC3)cc2nc1CC,> 42 µM (inactive)
